Measurements reported in ChEMBL document CHEMBL1201862, “PubChem BioAssay data set” (2004).
“And” between values parts separate entries of the source, which are not always exact repeats. Identical values can stand only once.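 A five-concentration, 48-hour dose response in 96-well plates underlies each endpoint, interpolated linearly between surrounding concentrations. Here, GI50 denotes the concentration required for 50% inhibition of growth.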 The source made the active and inactive calls. Rule as the data show it: active = GI50 up to about 1.1 µM and inactive = higher.

Legend:
Experiment in all cases: NCI-60 cell line screen, 48 h
786-0 = test system: 786-0
SF-539 = test system: SF-539
SF-268 = test system: SF-268
SNB-75 = test system: SNB-75
UO-31 = test system: UO-31
OVCAR-5 = test system: OVCAR-5
DU-145 = test system: DU-145
M14 = test system: M14
HOP-92 = test system: HOP-92
KM12 = test system: KM12
SK-OV-3 = test system: SK-OV-3
LOX IMVI = test system: LOX IMVI
RXF 393 = test system: RXF 393
SW-620 = test system: SW-620
HOP-62 = test system: HOP-62
A549 = test system: A549
PC-3 = test system: PC-3
NCI-H460 = test system: NCI-H460
SN12C = test system: SN12C
Hs-578T = test system: Hs-578T
NCI/ADR-RES = test system: NCI/ADR-RES
MCF7 = test system: MCF7
EKVX = test system: EKVX
HCT-116 = test system: HCT-116
BT-549 = test system: BT-549
TK-10 = test system: TK-10
NCI-H226 = test system: NCI-H226
OVCAR-4 = test system: OVCAR-4
HCT-15 = test system: HCT-15
HL-60 = test system: HL-60
CAKI-1 = test system: CAKI-1
A498 = test system: A498
HT-29 = test system: HT-29
ACHN = test system: ACHN
NCI-H23 = test system: NCI-H23
HCC 2998 = test system: HCC 2998
OVCAR-8 = test system: OVCAR-8
UACC-62 = test system: UACC-62
CCRF-CEM = test system: CCRF-CEM
T47D = test system: T47D
MDA-N = test system: MDA-N
MDA-MB-231 = test system: MDA-MB-231
SF-295 = test system: SF-295
MDA-MB-435 = test system: MDA-MB-435
UACC-257 = test system: UACC-257
COLO 205 = test system: COLO 205
NCI-H522 = test system: NCI-H522
SK-MEL-2 = test system: SK-MEL-2
IGROV-1 = test system: IGROV-1
MOLT-4 = test system: MOLT-4
U-251 = test system: U-251
SNB-19 = test system: SNB-19
Malme-3M = test system: Malme-3M
SR = test system: SR
SK-MEL-28 = test system: SK-MEL-28
SK-MEL-5 = test system: SK-MEL-5
OVCAR-3 = test system: OVCAR-3
K562 = test system: K562
RPMI-8226 = test system: RPMI-8226

COc1ccc(-c2c(C#N)c(O)n(C3OC(COC(C)=O)C(OC(C)=O)C(OC(C)=O)C3OC(C)=O)c(=S)c2C#N)cc1 (stereo not given)
GI50 (786-0): 31.7 µM (inactive) and 34 µM (inactive) | GI50 (SF-539): 55.2 µM (inactive) and 36.1 µM (inactive) | GI50 (SF-268): 25.1 µM (inactive) and 27.9 µM (inactive) | GI50 (SNB-75): 26.5 µM (inactive) and 18.9 µM (inactive) | GI50 (UO-31): 33.4 µM (inactive) and 26.1 µM (inactive) | GI50 (OVCAR-5): > 100 µM (inactive) | GI50 (DU-145): 84.5 µM (inactive) | GI50 (M14): > 100 µM (inactive) | GI50 (HOP-92): 19 µM (inactive) and 17.8 µM (inactive) | GI50 (KM12): 65.9 µM (inactive) | GI50 (SK-OV-3): 33.9 µM (inactive) and 28.6 µM (inactive) | GI50 (LOX IMVI): 93.1 µM (inactive) and 51.5 µM (inactive) | GI50 (RXF 393): 32.1 µM (inactive) and 26 µM (inactive) | GI50 (SW-620): > 100 µM (inactive) | GI50 (HOP-62): 31.6 µM (inactive) and 27 µM (inactive) | GI50 (A549): > 100 µM (inactive) | GI50 (PC-3): 44.3 µM (inactive) and 66.5 µM (inactive) | GI50 (NCI-H460): 68.7 µM (inactive) and 37.6 µM (inactive) | GI50 (SN12C): 94.8 µM (inactive) and 67 µM (inactive) | GI50 (Hs-578T): 30.7 µM (inactive) and 32.1 µM (inactive) | GI50 (NCI/ADR-RES): > 100 µM (inactive) | GI50 (MCF7): > 100 µM (inactive) | GI50 (EKVX): 25.9 µM (inactive) and 37.3 µM (inactive) | GI50 (HCT-116): 64 µM (inactive) and 67.3 µM (inactive) | GI50 (BT-549): 32.7 µM (inactive) and 24.8 µM (inactive) | GI50 (TK-10): 31.6 µM (inactive) and 36.8 µM (inactive) | GI50 (NCI-H226): > 100 µM (inactive) and 72.8 µM (inactive) | GI50 (OVCAR-4): 29.1 µM (inactive) and 43.7 µM (inactive) | GI50 (HCT-15): > 100 µM | GI50 (HL-60): 22.2 µM (inactive) and 24.5 µM (inactive) | GI50 (CAKI-1): 31.4 µM (inactive) and 19.1 µM (inactive) | GI50 (A498): 30.3 µM (inactive) and 32.1 µM (inactive) | GI50 (HT-29): > 100 µM (inactive) | GI50 (ACHN): 48.6 µM (inactive) and 54.8 µM (inactive) | GI50 (NCI-H23): 97.5 µM (inactive) and 79.4 µM (inactive) | GI50 (HCC 2998): 26.5 µM (inactive) and 25.1 µM (inactive) | GI50 (OVCAR-8): 28.4 µM (inactive) and 36.6 µM (inactive) | GI50 (UACC-62): 26 µM (inactive) and 25.7 µM (inactive) | GI50 (CCRF-CEM): > 100 µM (inactive) and 67.8 µM (inactive) | GI50 (T47D): 21.5 µM (inactive) and 30.3 µM (inactive)

C=CCOc1ccc(C2C(C(=O)OC)C(=O)CC(O)(c3ccccc3)C2C(=O)OC)cc1OC (stereo not given)
GI50 (786-0): 17 µM (inactive) | GI50 (SF-268): 20.5 µM (inactive) | GI50 (MDA-N): 58.9 µM (inactive) | GI50 (SNB-75): 26.9 µM (inactive) | GI50 (UO-31): 22.4 µM (inactive) | GI50 (MDA-MB-231): 18.4 µM (inactive) | GI50 (OVCAR-5): > 100 µM (inactive) | GI50 (DU-145): 51.6 µM (inactive) | GI50 (SF-295): 26.9 µM (inactive) | GI50 (HOP-92): 18 µM (inactive) | GI50 (KM12): 23.5 µM (inactive) | GI50 (MDA-MB-435): 41.1 µM (inactive) | GI50 (UACC-257): 58.1 µM (inactive) | GI50 (LOX IMVI): 40.1 µM (inactive) | GI50 (RXF 393): 15.9 µM (inactive) | GI50 (COLO 205): 63.1 µM (inactive) | GI50 (NCI-H522): 22.4 µM (inactive) | GI50 (SW-620): > 100 µM (inactive) | GI50 (HOP-62): 42.4 µM (inactive) | GI50 (SK-MEL-2): 26.4 µM (inactive) | GI50 (A549): 34.4 µM (inactive) | GI50 (PC-3): 31.7 µM (inactive) | GI50 (NCI-H460): 30.3 µM (inactive) | GI50 (IGROV-1): 34.7 µM (inactive) | GI50 (MOLT-4): 27.5 µM (inactive) | GI50 (SN12C): 41.7 µM (inactive) | GI50 (NCI/ADR-RES): 22.8 µM (inactive) | GI50 (U-251): 32 µM (inactive) | GI50 (SNB-19): > 100 µM (inactive) | GI50 (Malme-3M): 31.6 µM (inactive) | GI50 (SR): 27.4 µM (inactive) | GI50 (MCF7): 21.2 µM (inactive) | GI50 (SK-MEL-28): 41 µM (inactive) | GI50 (EKVX): 62.7 µM (inactive) | GI50 (HCT-116): 20 µM (inactive) | GI50 (BT-549): 30.6 µM (inactive) | GI50 (TK-10): 33.7 µM (inactive) | GI50 (SK-MEL-5): 35.3 µM (inactive) | GI50 (NCI-H226): 22.4 µM (inactive) | GI50 (OVCAR-4): 23.6 µM (inactive) | GI50 (HCT-15): > 100 µM | GI50 (HL-60): 31.6 µM (inactive) | GI50 (CAKI-1): 32.3 µM (inactive) | GI50 (A498): 22.8 µM (inactive) | GI50 (HT-29): 42.2 µM (inactive) | GI50 (ACHN): 38.1 µM (inactive) | GI50 (NCI-H23): 31.8 µM (inactive) | GI50 (HCC 2998): 40.5 µM (inactive) | GI50 (OVCAR-3): 45.6 µM (inactive) | GI50 (OVCAR-8): 19.7 µM (inactive) | GI50 (UACC-62): 27.4 µM (inactive) | GI50 (K562): 51.2 µM (inactive) | GI50 (CCRF-CEM): 30.9 µM (inactive) | GI50 (T47D): 20.8 µM (inactive)

Nc1ccc2c(c1)C1Oc3ccccc3CC1CO2 (stereo not given)
GI50 (786-0): > 100 µM (inactive) | GI50 (SF-539): > 100 µM (inactive) | GI50 (RPMI-8226): > 100 µM (inactive) | GI50 (SF-268): > 100 µM (inactive) | GI50 (MDA-N): > 100 µM (inactive) | GI50 (UO-31): > 100 µM (inactive) | GI50 (MDA-MB-231): > 100 µM (inactive) | GI50 (OVCAR-5): > 100 µM (inactive) | GI50 (DU-145): > 100 µM (inactive) | GI50 (SF-295): > 100 µM (inactive) | GI50 (M14): > 100 µM (inactive) | GI50 (HOP-92): > 100 µM (inactive) | GI50 (KM12): > 100 µM (inactive) | GI50 (MDA-MB-435): > 100 µM (inactive) | GI50 (SK-OV-3): > 100 µM (inactive) | GI50 (UACC-257): > 100 µM (inactive) | GI50 (LOX IMVI): > 100 µM (inactive) | GI50 (COLO 205): > 100 µM (inactive) | GI50 (NCI-H522): > 100 µM (inactive) | GI50 (SW-620): > 100 µM (inactive) | GI50 (HOP-62): > 100 µM (inactive) | GI50 (SK-MEL-2): > 100 µM (inactive) | GI50 (A549): > 100 µM (inactive) | GI50 (PC-3): > 100 µM (inactive) | GI50 (IGROV-1): > 100 µM (inactive) | GI50 (MOLT-4): > 100 µM (inactive) | GI50 (SN12C): > 100 µM (inactive) | GI50 (NCI/ADR-RES): > 100 µM (inactive) | GI50 (U-251): > 100 µM (inactive) | GI50 (Malme-3M): > 100 µM (inactive) | GI50 (SR): > 100 µM (inactive) | GI50 (MCF7): > 100 µM (inactive) | GI50 (EKVX): > 100 µM (inactive) | GI50 (HCT-116): > 100 µM (inactive) | GI50 (BT-549): 74.6 µM (inactive) | GI50 (TK-10): > 100 µM (inactive) | GI50 (SK-MEL-5): > 100 µM (inactive) | GI50 (NCI-H226): > 100 µM (inactive) | GI50 (HCT-15): 15.7 µM | GI50 (HL-60): > 100 µM (inactive) | GI50 (CAKI-1): > 100 µM (inactive) | GI50 (A498): > 100 µM (inactive) | GI50 (HT-29): > 100 µM (inactive) | GI50 (NCI-H23): > 100 µM (inactive) | GI50 (HCC 2998): > 100 µM (inactive) | GI50 (OVCAR-3): > 100 µM (inactive) | GI50 (OVCAR-8): > 100 µM (inactive) | GI50 (UACC-62): > 100 µM (inactive) | GI50 (K562): > 100 µM (inactive) | GI50 (CCRF-CEM): > 100 µM (inactive) | GI50 (T47D): 76 µM (inactive)
